Source: US20210284691A1, “CBX8 CHROMDOMAIN INHIBITORS AND THE USES THEREOF” (Purdue Research Foundation, priority 2019, published 2021)
Square brackets hold non-standard residues; d marks the D form. Peptide text beside a SMILES is read from it. * marks the point of attachment. Tyr(3-Cl) = N[C@@H](Cc1ccc(O)c(Cl)c1)C(=O)O; Benzoyl(3,5-Cl2) = O=C(c1cc(Cl)cc(Cl)c1)*; Lys(Et2) = CCN(CC)CCCC[C@H](N)C(=O)O; Gly(cPent) = N[C@H](C(=O)O)C1CCCC1; NH(propargyl) = C#CCN*

How the values were obtained:
[1] = molecular target: T1, CBX8 binding to chromatin (Homo sapiens, UniProt Q9HC52); assay: ChIP-qPCR in Hs68 fibroblast cells; format: cell-based; conditions: 100 μM, 4 h
T1 construct: endogenous in cells; host or cells: Hs68 fibroblasts (A16); HEK293T (A19); K562 (A23)
T1 sequence (Q9HC52 1-389): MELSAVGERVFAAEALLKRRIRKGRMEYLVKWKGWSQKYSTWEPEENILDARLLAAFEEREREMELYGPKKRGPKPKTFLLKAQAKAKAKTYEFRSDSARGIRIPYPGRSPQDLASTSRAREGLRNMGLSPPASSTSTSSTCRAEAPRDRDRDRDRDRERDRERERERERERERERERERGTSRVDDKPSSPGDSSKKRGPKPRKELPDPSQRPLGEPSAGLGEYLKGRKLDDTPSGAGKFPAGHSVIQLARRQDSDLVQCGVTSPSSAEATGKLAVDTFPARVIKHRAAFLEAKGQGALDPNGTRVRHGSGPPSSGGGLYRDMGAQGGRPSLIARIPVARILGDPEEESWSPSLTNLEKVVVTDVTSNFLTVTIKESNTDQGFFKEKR
Description: ChIP: Hs68 cells were seeded at 4×10^6 in a 10 cm cell culture plates 16 hours prior to treatment. […] ChIP was performed as described in Connelly et al., 2018. Birefly, cells were washed with PBS and fixed on the plate with CiA Fix buffer (50 mM HEPES, pH 8.0, 1 mM EDTA, 0.5 mM ETGA, 100 mM NaCl) and 1% formaldehyde for 10 min at room temperature. Crosslinking was quenched with 0.125 M glycine for 5 min at 4° C. Cells were washed once with PBS and lifted off the plate then resuspended in CiA NP Rinse buffer 1 (50 mM HEPES pH 8.0, 140 mM NaCl, 1 mM EDTA, 10% glycerol, 0.5% NP-40, 0.25% Triton X) for 10 min. Cells were pelleted at 1200×g for 5 min at 4° C. The supernatant was removed, and the cells were resuspended in CiA NP rinse buffer 2 (10 mM Tris pH 8.0, 1 mM EDTA, 0.5 mM EGTA, 200 mM NaCl). Cells were collected by centrifugation, 1200×g for 5 min. Supernatant was removed and the cells were washed twice with shearing buffer (0.1% SDS, 1 mM EDTA, 10 mM Tris HCl, pH 8.0). Cells were resuspended in shearing buffer and sonicated for 7 min with the probe (Branson). Lysate was centrifuged at 21,000×g for 15 min to remove debris. Supernatant was collected and pre-cleared overnight with Protein A/G magnetic beads (Pierce). […]
(§1) qPCR: qPCR was performed on the isolated ChIP DNA using SYBR master mix (Thermo) and run on the BioRad CFX thermo cycler. […] Enrichment was determined by percent input. […]

[2] = molecular target: T2, CBX7 binding to chromatin (Homo sapiens, UniProt O95931); assay: ChIP-qPCR in Hs68 fibroblast cells; format: cell-based; conditions: 100 μM, 4 h
T2 construct: endogenous in cells; host or cells: Hs68 fibroblasts (A17); HEK293T (A20)
Description: ChIP: Hs68 cells were seeded at 4×10^6 in a 10 cm cell culture plates 16 hours prior to treatment. Cells were treated with 100 μM SW2-110A or DMSO for four hours. ChIP was performed as described in Connelly et al., 2018. Birefly, cells were washed with PBS and fixed on the plate with CiA Fix buffer (50 mM HEPES, pH 8.0, 1 mM EDTA, 0.5 mM ETGA, 100 mM NaCl) and 1% formaldehyde for 10 min at room temperature. Crosslinking was quenched with 0.125 M glycine for 5 min at 4° C. Cells were washed once with PBS and lifted off the plate then resuspended in CiA NP Rinse buffer 1 (50 mM HEPES pH 8.0, 140 mM NaCl, 1 mM EDTA, 10% glycerol, 0.5% NP-40, 0.25% Triton X) for 10 min. Cells were pelleted at 1200×g for 5 min at 4° C. The supernatant was removed, and the cells were resuspended in CiA NP rinse buffer 2 (10 mM Tris pH 8.0, 1 mM EDTA, 0.5 mM EGTA, 200 mM NaCl). Cells were collected by centrifugation, 1200×g for 5 min. Supernatant was removed and the cells were washed twice with shearing buffer (0.1% SDS, 1 mM EDTA, 10 mM Tris HCl, pH 8.0). Cells were resuspended in shearing buffer and sonicated for 7 min with the probe (Branson). Lysate was centrifuged at 21,000×g for 15 min to remove debris. […]
as §1

T2 sequence (O95931 whole entry): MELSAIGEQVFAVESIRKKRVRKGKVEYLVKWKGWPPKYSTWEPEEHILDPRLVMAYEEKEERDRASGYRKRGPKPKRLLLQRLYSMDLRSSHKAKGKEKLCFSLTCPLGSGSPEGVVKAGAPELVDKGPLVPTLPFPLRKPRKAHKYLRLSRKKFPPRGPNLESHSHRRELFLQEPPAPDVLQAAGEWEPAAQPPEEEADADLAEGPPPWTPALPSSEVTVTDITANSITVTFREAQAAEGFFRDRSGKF

## C#CCNC(=O)[C@H](CO)NC(=O)[C@H](CCCCN(CC)CC)NC(=O)[C@@H](NC(=O)[C@@H](NC(=O)[C@H](Cc1ccc(O)c(Cl)c1)NC(=O)c1cc(Cl)cc(Cl)c1)C1CCCC1)[C@@H](C)CC [SW2_152F] ({Benzoyl(3,5-Cl2)}-[Tyr(3-Cl)][Gly(cPent)]I[Lys(Et2)]S-{NH(propargyl)})
[1]
  CBX8 binding at target loci, ChIP-qPCR: significant reduction of CBX8 binding
[2]
  CBX7 binding at target loci, ChIP-qPCR: not CBX7 binding
